Measured values as given in patent publication US6262094A (priority 1999, dated 2001).
≈ marks a conversion by molar mass, not a printed value.

Experiments:
Assay type in all cases: cell-based
[1] = test system: PC-3 (ATCC CRL 1435), human prostate adenocarcinoma; settings: 120 h, PC-3, incubation period of 5 days, MTT
[2] = test system: KB-3.1 (DSM ACC 158), human cervix carcinoma; settings: KB 3-1, 120 h, KB-3.1, incubation period of 5 days, MTT
[3] = test system: K-562 (ATCC CCL-243), human chronic myelogenous leukemia; test: Growth inhibition, WST-1 reduction in microtiter plates; settings: K562, 120 h, K-562, incubation period of 5 days, read-out: IC50 K-562/U-937 leukemia
[4] = test system: A-549 (DSM ACC 107), human lung carcinoma; settings: A549, 120 h, A-549, incubation period of 5 days, MTT
[5] = test system: SK-OV-3 (ATCC HTB-77), human ovary adenocarcinoma; settings: 120 h, SK-OV-3, incubation period of 5 days, MTT
[6] = test system: U-937 (DSM ACC 5), human histiocytic lymphoma; test: Growth inhibition, WST-1 reduction in microtiter plates; settings: 120 h, U-937, incubation period of 5 days, read-out: IC50 K-562/U-937 leukemia

Compound | IC50 [1] | IC50 [2] | IC50 [3] | IC50 [4] | IC50 [5] | IC50 [6]
C/C(=C\c1csc(CN)n1)[C@@H]1C[C@@H]2O[C@]2(C)CCC[C@H](C)[C@H](O)[C@@H](C)C(=O)C(C)(C)[C@@H](O)CC(=O)O1 [21-amino-epo B, [1S-[1R*,3R*(E),7R*,10S*,11R*,12R*,16S*]]-3-[2-[2-(Aminomethyl)-4-thiazolyl]-1-methylethenyl]-7,11-dihydroxy-8,8,10,12,16-pentamethyl-4,17-dioxabicyclo[14.1.0]heptadecane-5,9-dione] | 1.5 ng/mL (≈ 2.87 nM) | 0.4 ng/mL (≈ 0.765 nM) | – | – | – | –
C/C(=C\c1csc(CCl)n1)[C@@H]1C[C@@H]2O[C@@H]2CCC[C@H](C)[C@H](O)[C@@H](C)C(=O)C(C)(C)[C@@H](O)CC(=O)O1 [21-chloro-epo A] | – | 60 ng/mL (≈ 114 nM) | 12 ng/mL (≈ 22.7 nM) | 10 ng/mL (≈ 18.9 nM) | – | –
C=Cc1nc(/C=C(\C)[C@@H]2C[C@@H]3O[C@@H]3CCC[C@H](C)[C@H](O)[C@@H](C)C(=O)C(C)(C)[C@@H](O)CC(=O)O2)cs1 [20-vinyl-epo A, [1S-[1R*,3R*(E),7R*,10S*,11R*,12R*,16S*]]-3-[2-(2-Ethenyl-4-thiazolyl)-1-methylethenyl]-7,11-dihydroxy-8,8,10,12-tetramethyl-4,17-dioxabicyclo[14.1. 0]heptadecane-5,9-dione] | 0.4 ng/mL (≈ 0.791 nM) | 3 ng/mL (≈ 5.93 nM) | – | – | 1 ng/mL (≈ 1.98 nM) | 1.5 ng/mL (≈ 2.97 nM)
C/C(=C\c1csc(CN)n1)[C@@H]1C[C@@H]2O[C@@H]2CCC[C@H](C)[C@H](O)[C@@H](C)C(=O)C(C)(C)[C@@H](O)CC(=O)O1 [21-amino-epo A] | 3 ng/mL (≈ 5.9 nM) | 4 ng/mL (≈ 7.86 nM) | – | – | 4 ng/mL (≈ 7.86 nM) | 3 ng/mL (≈ 5.9 nM)
C/C(=C\c1csc(CN=[N+]=[N-])n1)[C@@H]1C[C@@H]2O[C@]2(C)CCC[C@H](C)[C@H](O)[C@@H](C)C(=O)C(C)(C)[C@@H](O)CC(=O)O1 [21-azido-epo B, [1S-[1R*,3R* (E),7R*, 10S*,11R*,12R*,16S*]]-3-[2-[2-(Azidomethyl)-4-thiazolyl]-1-methylethenyl]-7,11-dihydroxy-8,8,10,12,16-pentamethyl-4,17-dioxabicyclo[14.1. 0]heptadecane-5,9-dione] | 0.4 ng/mL (≈ 0.729 nM) | 0.5 ng/mL (≈ 0.911 nM) | – | – | – | –
